{
  "source": "patent US20210046143A1",
  "about": "“METHOD FOR TREATMENT OF THE HUMAN BODY BY THERAPY BY ADMINISTERING A COMPOSITION COMPRISING A PLANT EXTRACT OF THE SPECIE HEDYCHIUM CORONARIUM” (Societe D'exploitation De Produits Pour Les Industries …, priority 2016, published 2021)",
  "type_in_all_cases": "cell-based",
  "key": {"[1]": {"system": "normal human keratinocytes", "assay": "ROS detection with H2DCFDA probe in normal human keratinocytes", "settings": "20 minutes", "description": "• 1)—Background Information The aim of the present evaluation was to evaluate the antioxidant and antipollution effects of the extract HCR, against oxidative stress in normal human cultured keratinocytes extracted from abdominal plastic surgery (donor), using the H2DCFDA probe. […] It is cell-permeant and stable. When it penetrates the cell, acetate groups are cleaved by intracellular esterases. The resulting product is the dichlorodihydrofluorescein (or H2DCF), non-fluorescent. […] The probe oxidation is not specific of one type of ROS. The fluorescence is detected at wavelengths of 490 nm (excitation) and 525 nm (emission). […] A XTT assay was previously performed, to check the cells viability, in order to determine the concentrations to be tested, as described in Example 2. • 2)—Evaluation of Antioxidant Effect (H2DCFDA Probe) Normal human keratinocytes were seeded in 96-well microplates and are then treated with the test compound to be tested for 24 hours, before adding the fluorescent probe for detection of ROS and stimulating or not by the pollutant or hydrogen peroxide. This test is based on the use of a detection system, a probe, which is degraded and fluoresces on contact with ROS. […] After incubation, fluorescence was read at 490 nm (excitation) and 525 nm (emission) wavelengths (Tecan Safire II reader). Data are expressed as RFU (fluorescence units). […]"}, "[2]": {"system": "lysosomes network of normal human fibroblasts (NHF)", "assay": "Lysosomal network protection (LysoTracker staining) in UVA-irradiated fibroblasts", "settings": "500 μM", "procedure": "b)-Normal human fibroblasts (NHF) extracted after plastic surgery from mammary skin dermis of a donor, were cultured as primary monolayers; a)-Fibroblasts seeding was carried out as described in Example 2. b)-Cells were then incubated with a fluorescent probe (Invitrogen LysoTrackerTM). They were observed and photographed with x40 objective (Olympus CK40 microscope and […] Microvision software), with or without appropriate fluorescent filter. The photos allowed the visualization respectively of the lysosomes network or of the whole cells. c)-Fluorescence was quantified with Colombus software, by HCS Pharma (Rennes, France), as mean intensity (3 images for each condition). It is the mean value of intensity for each pixel of staining, contained in the cell area stained with LysoTracker (number of cells of each image is taken into account, as the final value is the mean of all cells values on the image). • 4)-Results"}, "[3]": {"system": "Normal human fibroblasts (NHF)", "assay": "Autophagic activity (MDC assay) in fibroblasts irradiated with blue light", "settings": "for Decrease of autophagic activity of irradiated fibroblast cells: irradiated at 453 nanometers", "procedure": "• 1)—Background Information The purpose of the study is to evaluate effects of one HCR extracts on autophagic activities of in fibroblast irradiated with 453 nanometers blue light. The cells (normal human fibroblasts or (NHF)) are cultured as primary monolayer. Product to be tested is applied during 24 hours before irradiation and the n the product to be tested is applied during 24 hours . then autophagic activity is measured (MDC). Lysosomes are cytoplasmic organelles that permit recycling of cellular materials that have exceeded their lifetime or are otherwise no longer useful. Their main function is to digest endogeneous or exogeneous substrates (so called autophagy) in eukaryotic cells. Lysosomes break down cellular waste products, fats, carbohydrates, proteins, and other macromolecules into small compounds, which are transferred back into the cytoplasm as new cell-building materials. Indeed, its lipid membrane contains many enzymes, proton pumps and transport proteins. Acid pH is regulated to allow optimum activities of acid hydrolases [1]-[2]. The fluorescent LysoTracker probe is structured to easily insert in living cells (a fluorophore is linked to a weak base that is only partially protonated at neutral pH). This characteristic permits to this labeling/staining to be very selective for acid organelles i.e. the lysosomes. Then, effects of radiations, like blue light for instance, at lysosomal level can be evaluated. Indeed, these radiations lead to free radical formation and affect the normal lysosomes network, its distribution in the cell space. This can be visualized with specific fluorescent probe LysoTracker. Autophagy is an eukaryotic cell process that allow cytoplasmic materials digestion in a vacuole that fuses with the lysosome. Indeed, lysosomes can directly incorporate cytoplasmic fragments (micro-autophagy), or via autophagic vacuoles, named autophagosomes (macro-autophagy, fusion of lysosome and autophagosome is so called autolysosome). Autophagy is an important mechanism that allows the cell to mobilize its energy stocks to defend and destroy its damaged organelles and then avoid serious effects. This process permits elimination and replacement of proteins and non-functional organelles, then to ensure homeostasis. It is an essential cytoprotective mechanism that allows adaptive cell responses to different kinds of stress or damages, as nutritive privation (starvation). So it is necessary to cell survival, but also to other fundamental physiologic phenomena as development, immunity, cell differentiation (including keratinocytes differentiation to corneocytes in the epidermis). It is involved in longevity control, aging, and development of pathologies as cancer or diabetes, infectious, metabolic, or neuro-degenerative diseases. […] Three concentrations of the extract HCR are tested (weight/volume % of dry extract or DE, as it is a liquid extract), each dose being evaluated as quintuplicate (5 wells). Irradiation dose of 453 nm blue light is 40 J/cm^2 (23 mW/cm^2 for 29 minutes). b)—Cells are seeded into 96-wells microplates (at a cell density of 10,000 cells per well, i.e. 30,000 NHF/cm2), 24 hours before treatment (incubation at 37° C./5% CO2). […] Fibroblasts are then treated again with the product (curative effect) for another 24 h (so the total application is 48 h). Cells are seeded in complete medium: Dulbecco's modified Eagle medium or DMEM (Gibco 41966), with antibiotics (Gibco 15140) and 10% of foetal bovine serum or FBS (Gibco 10270). Treatments are done in medium without FBS. Irradiation is done in PBS (phosphate buffer saline). All incubation/treatment times are at 37° C./5% CO2 (except irradiation, done at room temperature). At the end of treatment, wells are delicately rinsed (PBS) and 0.05 mM MDC probe is applied on cells (Sigma 30432) (37° C./5% CO2). After incubation during 30 minutes and washes, fluorescence is measured at 380 nm (excitation) and 525 nm (emission) wavelengths (Tecan Safire II machine). […]"}, "[4]": {"system": "ATP production by normal human fibroblasts (NHF)", "assay": "ATP titration in fibroblasts, UVA-irradiated or not", "settings": "500 μM", "procedure": "(§1) a)—In order to check the effects of UV and the tested product on cells metabolism, ATP and NAD^+/NADH titrations were performed. • (i)—Cells were seeded into 96-wells plates (at a cell density of 5,000 cells per well, i.e. 15,000 NHF/cm^2), in the same medium as previously described, one day before treatment. Then the treatment and irradiation timing was the same: first application for twenty-four hours (in medium without sera), then UVA-irradiation or not (same dose) and finally a second treatment for another twenty-four hours. As formerly, from the beginning to the end of the experiment, cells were incubated at 37° C./5% CO2. […] Measured quantity of this product (absorbance) is proportional to total NAD (NAD^+ and NADH) in each sample. • (v)—The ATP assay kit is an ATP monitoring system based on firefly (Photinus pyralis) luciferase. Added luciferase and D-luciferin react with ATP in samples to produce light, which measure (luminescence) is proportional to the ATP concentration. • b)—Raw data of both ATP and NAD^+/NADH titrations, i.e. luminescence units (RLU) or OD measurements obtained for respective standards, were plotted on graphics to determine standard curves. Then, the concentrations of ATP or NAD^+/NADH measured in the samples were determined. Quantitative values of each condition were averaged. […]"}, "[5]": {"system": "mitochondria network of normal human fibroblasts (NHF)", "assay": "Mitochondrial network protection (MitoTracker staining) in UVA-irradiated fibroblasts", "settings": "500 μM, positive control", "procedure": "b)-Normal human fibroblasts (NHF) extracted after plastic surgery from mammary skin dermis of a donor, were cultured as primary monolayers; a)-Fibroblasts were seeded into Petri dishes (at a cell density of 150,000 cells per dish, with a diameter of 60 mm, i.e. 7,700 NHF/cm^2), in the same medium as previously described (complete medium, i.e. with FBS), one day before treatment (incubation at 37° C.; 5% CO2). Each test compound concentration/dose (in one dish each) was then applied for 24 hours (in medium without sera; incubation at 37° C./5% CO2). […] b)-To evaluate the mitochondria staining, cells were incubated with a fluorescent probe (Invitrogen MitoTrackerTM). Cells were observed and photos were taken with x40 objective (Olympus […] microscope and […] Microvision software), with or without appropriate fluorescent filter. The photos allowed the visualization of the mitochondria network or of the whole cells, respectively. • 4)-Evaluation of the Effects on the Metabolic Activity (ATP & NAD^+/NADH Titrations)"}, "[6]": {"system": "NAD+/NADH production by normal human fibroblasts (NHF)", "assay": "NAD+/NADH titration in fibroblasts, UVA-irradiated or not", "settings": "Vitamin C 500 μM, UVA-irradiated", "procedure": "as §1"}},
  "data": [
    {"smiles": "c1ccc2c(c1)cc1ccc3cccc4ccc2c1c34", "note": "[BaP, benzo(a)pyrene]", "values": [
      {"measurement": "Stimulation of ROS production comparatively to non-stimulated acetone solvent control", "setting": "[1]; BaP 36 μM", "value": "+141%"}
    ]},
    {"smiles": "OO", "note": "[hydrogen peroxide]", "values": [
      {"measurement": "Stimulation of ROS production comparatively to unstimulated control", "setting": "[1]; hydrogen peroxide 1 mM", "value": "+808%"}
    ]},
    {"smiles": "O=C1O[C@H]([C@@H](O)CO)C(O)=C1O", "note": "[vitamin C, L-ascorbic acid]", "values": [
      {"measurement": "LysoTracker fluorescence mean intensity", "setting": "[2]; highly significant", "value": "higher"},
      {"measurement": "Protection of lysosomes network against UV (LysoTracker images)", "setting": "[2]; positive control", "value": "diminished the effects of UVA"},
      {"measurement": "RFU (means), MDC autophagic activity", "setting": "[3]; 500 μMoles, irradiated (453 nanometers) NHF", "value": 95, "unit": "RFU"},
      {"measurement": "RFU (means), MDC autophagic activity", "setting": "[3]; 500 μMoles, non irradiated NHF", "value": "60 ^(***^) RFU"},
      {"measurement": "Decrease of autophagic activity of irradiated fibroblast cells", "setting": "[3]; vitamin C", "value": 14, "unit": "%"},
      {"measurement": "ATP synthesis, change compared to irradiated control", "setting": "[4]", "value": "+61%"},
      {"measurement": "Protection of mitochondria network against UV (MitoTracker images)", "setting": "[5]", "value": "effects of UVA were less distinct"},
      {"measurement": "NAD+/NADH release by UV-irradiated cells", "setting": "[6]", "value": "did not show expected positive effect"}
    ]},
    {"smiles": "CC(=O)Oc1c(C)c(C)c2c(c1C)CCC(C)(CCC[C@H](C)CCC[C@H](C)CCCC(C)C)O2", "note": "(stereo partly drawn) [vitamin E, α-tocopherol acetate]", "values": [
      {"measurement": "RFU (means), MDC autophagic activity", "setting": "[3]; 200 μMoles, irradiated (453 nanometers) NHF", "value": "86 ^(*^) RFU"},
      {"measurement": "RFU (means), MDC autophagic activity", "setting": "[3]; 200 μMoles, non irradiated NHF", "value": "76 ^(**^) RFU"},
      {"measurement": "Decrease of autophagic activity of irradiated fibroblast cells", "setting": "[3]; vitamin E", "value": 22, "unit": "%"}
    ]}
  ]
}
